The source of these data is US9586914B2, “Modulators of C3a receptors” (THE UNIVERSITY OF QUEENSLAND, priority 2011, dated 2017).

Read-outs that look alike come from different tables or passages of the source.

One test has as its target T1, C3aR (Homo sapiens, UniProt Q16581).
T1 construct: peripheral blood mononuclear cells were isolated from buffy coat (obtained from Australian Red Cross Blood Service, Kelvin Grove); endogenous in cells; host or cells: primary human monocyte-derived macrophages (HMDM) differentiated from CD14+ monocytes of donor buffy coat
T1 sequence (Q16581 1-482): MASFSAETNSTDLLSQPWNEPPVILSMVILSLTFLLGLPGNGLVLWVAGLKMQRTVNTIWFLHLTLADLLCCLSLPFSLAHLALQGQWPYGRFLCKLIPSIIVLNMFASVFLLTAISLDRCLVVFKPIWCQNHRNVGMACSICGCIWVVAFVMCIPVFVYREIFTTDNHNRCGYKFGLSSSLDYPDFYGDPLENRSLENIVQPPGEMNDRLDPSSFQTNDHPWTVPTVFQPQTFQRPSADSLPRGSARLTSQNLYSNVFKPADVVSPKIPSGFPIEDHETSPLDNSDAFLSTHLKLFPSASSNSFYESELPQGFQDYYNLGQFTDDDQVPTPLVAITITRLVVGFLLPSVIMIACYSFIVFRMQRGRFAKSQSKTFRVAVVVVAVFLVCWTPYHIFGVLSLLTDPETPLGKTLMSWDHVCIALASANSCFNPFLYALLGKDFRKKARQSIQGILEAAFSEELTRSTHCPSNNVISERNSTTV
Briefly: Calcium mobilization assay in HMDM (agonist/antagonist activity). The format is cell-based. Particulars: for Emax at 10 µM: read-out: % agonist; for EC50: Table 9, Ca^2+ mobilization, read-out: EC50. Here is the method:
Harvested HMDM cells were washed with 0.9% NaCl solution by centrifugation at 2500 rpm for 5 min, followed by resuspension of the cell pellet with complete media. Cells were seeded at 5×10^4 cells/well in a 96-well black-wall, clear bottom plate (DKSH, Zurich), and left overnight to adhere at 37° C. On the day of the experiment, supernatant was removed and cells were incubated in dye loading buffer (Hank's Balanced Salt Solution (HBSS) with 4 μM Fluo-3, 25 μL pluronic acid, 1% fetal bovine serum (FBS) and 2.5 mM probenecid) for one hour at 37° C. Cells were then washed twice with HBSS and transferred to a Fluorostar spectrofluorimeter (BMG, Durham N.C.) for oxazole compound injection and fluorescence measurements.
Various compounds were examined in the calcium mobilization assay for agonist or antagonist activity compared to hC3a and to the known antagonist SB290157.
HMDMs were seeded into black-wall, clear bottom 96-well plates (Corning Incorporated, NY) at 50,000 cells/well and left to incubate at 37° C. with 5% CO2 overnight for cells to adhere. The medium was removed before being washed with the assay buffer (1×HBSS, 20 mM HEPES, 2.5 mM probenecid, pH 7.4). To each well was added 100 μL of dye-loading buffer made up of 12 mL calcium buffer, 1% FBS, 25 μL of Fluo-3 dye (final concentration of 4 μM) and 25 μL of 20% pluronic acid. The plate was covered in aluminium foil to protect the light-sensitive dye and left to incubate at 37° C. for 1 h. The dye-loading buffer was removed before the cells were washed with the assay buffer to remove excess loading dye. To each well was added 50 μL of fresh assay buffer before the plate was loaded into a FLIPR (Fluorescent Imaging Plate Reader) that can inject treatments and measure any calcium release. To generate agonist plots, calcium release was monitored for 300 seconds. To generate antagonist plots, calcium release was recorded for 900 seconds, which at the same time would allow incubation for the antagonists. After the initial incubation period, an agonist would be added and the response was recorded for 300 seconds. Intracellular release of calcium was recorded via fluorescence measurements at wavelength of 485 nm for excitation and 520 nm for emission.

The target of the next test is T2, C3a receptor (C3aR) (Homo sapiens, UniProt Q16581).
T2 construct: peripheral blood mononuclear cells were isolated from buffy coat (obtained from Australian Red Cross Blood Service, Kelvin Grove); endogenous in cells; host or cells: primary human monocyte-derived macrophages (HMDM) differentiated from CD14+ monocytes of donor buffy coat
T2 sequence (Q16581 1-482): T1 sequence (Q16581 1-482)
The test can be described thus: Competitive binding with [^125I]-C3a in HMDM. The note with it: for remaining activity at 20 µM: 1 h, read-out: %[^125I]-C3a binding. The text has this:
For HMDM, peripheral blood mononuclear cells were isolated from buffy coat (obtained from Australian Red Cross Blood Service, Kelvin Grove) using Ficoll-paque density centrifugation (GE Healthcare Bio-Science, Uppsala, Sweden). CD^14+ monocytes were positively selected using CD^14+ MACS magnetic beads (Miltenyi Biotech, Auburn, Calif., USA). […] Cells were harvested by gentle scraping in saline solution and replated for use on Day 7. […] Unbound radioactivity was removed by filtration through glass microfiber filters GF/B (Whatman Iner. […] The filter was washed 3 times with cold buffer (50 mM Tris-HCl) pH 7.4. […] The −log IC50 for each compound was calculated for separate experiments and express as an arithmetic mean standard error (SE). IC50 values were expressed as a geometric mean.

Where [1] appears, read: Table 6, competitive binding with [^125I]-C3a, HMDM, read-out: IC50 (converted).
Where [2] appears, read: Table 6, competitive binding with [^125I]-C3a, HMDM.
Setting [3] is: Table 14, binding affinity for C3aR on HMDM, read-out: -Log IC50 (converted).

On to `Cc1oc([C@H](CC(C)C)NC(=O)CC(C)(C)C)nc1C(=O)N[C@@H](CCCNC(=N)N)C(=O)O` [Compound 34, 3,3-Dimethylbutanoic acid-Leucine-5-Methyl-Oxazole-Arginine], for which the Emax at 10 µM on C3aR stood at 70%. The remaining activity at 20 µM at C3a receptor (C3aR) was found to be 44%.

In the case of `Cc1oc(C(c2ccccc2)c2ccccc2)nc1C(=O)N[C@@H](CCCNC(=N)N)C(=O)O` [Compound 61, 2-Diphenylmethyl-5-methyl oxazole-4-carboxyl-Arg-OH], the “Agonist Activity (in words)” value at C3aR (Table 10, HMDM) is on record as “partial agonist”. Also, the IC50 was found to be 30 nM at C3aR (Table 10, HMDM, read-out: Antagonist Activity Ca^2+ IC50) and 740 nM on C3a receptor (C3aR) (Table 8, HMDM, read-out: Receptor Binding Affinity ^125I IC50). Moreover, the “-Log IC50” value on C3a receptor (C3aR) (Table 14, binding affinity for C3aR on HMDM) was 8.0.

Consider `Cc1oc([C@H](CC(C)C)NC(=O)Cc2ccc(/N=N/c3ccccc3)cc2)nc1C(=O)N[C@@H](CCCNC(=N)N)C(=O)O` [Compound 47, Phenyl hydrazine-Benzeneacetic acid-Leucine-5-Methyl-Oxazole-Arginine], for which the Emax at 10 µM at C3aR was 48%. For the same compound, the remaining activity at 20 µM at C3a receptor (C3aR) came out at 49%.

For the compound `Cc1oc([C@H](CC(C)C)NC(=O)c2cc3ccccc3[nH]2)nc1C(=O)N[C@@H](CCCNC(=N)N)C(=O)O` [Compound 28, Indole-2-carboxylic acid-Leucine-5-Methyl-Oxazole-Arginine], the Emax at 10 µM on C3aR is 56%. Further, the remaining activity at 20 µM at C3a receptor (C3aR) was found to be 26%.

`Cc1oc([C@H](CC(C)C)NC(=O)c2ccncc2)nc1C(=O)N[C@@H](CCCNC(=N)N)C(=O)O` [Compound 31, Isonicotinic acid-Leucine-5-Methyl-Oxazole-Arginine]: the Emax at 10 µM on C3aR came out at 109%.

For the compound `CC(C)C[C@H](NC(=O)OC(C)(C)C)c1nc(C(=O)N[C@@H](CCCN/C(N)=N\C#N)C(=O)O)co1` [Compound 90, (S)-2-(2-((S)-1-((tert-butoxycarbonyl)amino)-3-methylbutyl)oxazole-4-carboxamido)-5-((Z)-2-cyanoguanidino)pentanoic acid], at C3aR (HMDM), the concentration giving a half-maximal response (EC50) amounted to 250 nM. Further, at C3a receptor (C3aR) (setting [1]), the IC50 was 41 nM.

`CC(C)(C)OC(=O)N[C@@H](Cc1ccccc1)c1nc(C(=O)N[C@@H](CCCNC(=N)N)C(=O)O)co1` [Compound 3, Boc-L-Phenylalanine-Oxazole-Arg]: the IC50 on C3a receptor (C3aR) (setting [1]) is 509 nM.

As for `Cc1oc([C@H](CC(C)C)NC(=O)CCC(C)C)nc1C(=O)N[C@@H](CCCNC(=N)N)C(=O)O` [Compound 35, 4-Methyl valeric acid-Leucine-5-Methyl-Oxazole-Arginine], the Emax at 10 µM on C3aR was 95%.

Consider `CC(C)(C)OC(=O)N[C@@H](Cc1c[nH]c2ccccc12)c1nc(C(=O)N[C@@H](CCCNC(=N)N)C(=O)O)co1` [Compound 4, Boc-L-Tryptophan-Oxazole-Arg], for which the concentration for half-maximal inhibition (IC50) on C3a receptor (C3aR) (setting [1]) is 2290 nM.

Take `CC[C@H](C)[C@H](NC(=O)c1ccc(C(=O)c2ccccc2)cc1)c1nc(C(=O)N[C@@H](CCCNC(=N)N)C(=O)O)co1` [Compound 12, 4-Benzoylbenzoic acid-Isoleucine-Oxazole-Arginine-OH]: on C3a receptor (C3aR) (setting [2]), the “pIC50 ± SEM” value was 6.80 ± 0.15. In addition, the 50% inhibitory concentration (IC50) on C3a receptor (C3aR) (setting [1]) is 157 nM.

Take `CC(C)C[C@H](NC(=O)OC(C)(C)C)c1nnc(C(=O)N[C@@H](CCCNC(=N)N)C(=O)O)o1` [Compound 83, Boc-Leucine-1-oxa-3,4-diazole-Arginine-OH]: the IC50 at C3a receptor (C3aR) (setting [1]) is 1220 nM.

As to `Cc1c(C(=O)N[C@@H](CCCNC(=N)N)C(=O)O)nc([C@H](CC(C)C)NC(=O)OC(C)(C)C)n1C` [Compound 81, Boc-Leucine-1-methylimidazole-Arginine-OH], the concentration giving a half-maximal response (EC50) on C3aR (HMDM) amounted to 60 nM.

Take `Cc1oc([C@H](CC(C)C)NC(=O)c2ccc(Oc3ccccc3)cc2)nc1C(=O)N[C@@H](CCCNC(=N)N)C(=O)O` [Compound 49, 4-Phenoxybenzoic acid-Leucine-5-Methyl-Oxazole-Arginine]: the Emax at 10 µM at C3aR came out at 105%.

Take `CC[C@H](C)[C@H](NC(=O)c1ccc(N(C)C)cc1)c1nc(C(=O)N[C@@H](CCCNC(=N)N)C(=O)O)co1` [Compound 11, 4-(Dimethylamino)benzoic acid-Isoleucine-Oxazole-Arginine-OH]: the “pIC50 ± SEM” value on C3a receptor (C3aR) (setting [2]) amounted to 6.10 ± 0.16. The 50% inhibitory concentration (IC50) on C3a receptor (C3aR) (setting [1]) is 800 nM.

For the compound `COc1cccc(C(=O)N[C@@H](CC(C)C)c2nc(C(=O)N[C@@H](CCCNC(=N)N)C(=O)O)c(C)o2)c1` [Compound 42, m-Anisic acid-Leucine-5-Methyl-Oxazole-Arginine], the Emax at 10 µM at C3aR came out at 134%.

Consider `CC(C)C[C@H](NC(=O)OC(C)(C)C)c1nc(C(=O)N[C@@H](CCCNC(=N)N[N+](=O)[O-])C(=O)O)co1` [Compound 89, (S)-2-(2-((S)-1-((tert-butoxycarbonyl)amino)-3-methylbutyl)oxazole-4-carboxamido)-5-(3-nitroguanidino)pentanoic acid], for which, at C3a receptor (C3aR) (setting [1]), the IC50 was 129 nM.

With `N=C(N)NCCC[C@H](NC(=O)c1cnc(C(c2ccccc2)c2ccccc2)s1)C(=O)O` [Compound 78], the half-inhibitory concentration (IC50) on C3a receptor (C3aR) (setting [3]) is 3.98 nM.

As for `N=C(N)NCCC[C@H](NC(=O)c1ccc(C(c2ccccc2)c2ccccc2)o1)C(=O)O` [Compound 57, 5-Diphenylmethyl-furan-2-carboxyl-Arg-OH], at C3aR (text of Example 100), the “Function at C3aR (agonist / antagonist)” value is recorded as “antagonist”.

As to `CC(C)C[C@H](NC(=O)[C@@H](C)c1ccc(N2Cc3ccccc3C2=O)cc1)c1nc(C(=O)N[C@@H](CCCNC(=N)N)C(=O)O)co1` [Compound 15, 2-(4-(1-oxoisoindolin-2-yl)phenyl)propanoic acid Leucine-Oxazole-Arginine-OH], the concentration for half-maximal inhibition (IC50) on C3a receptor (C3aR) (setting [1]) was 451 nM.

Consider `Cc1ccc(NC(=O)N[C@@H](CC(C)C)c2nc(C(=O)N[C@@H](CCCNC(=N)N)C(=O)O)c(C)o2)cc1` [Compound 45, p-Tolyl isocyanate-Leucine-5-Methyl-Oxazole-Arginine], for which the Emax at 10 µM on C3aR turned out to be 64%.

Consider `CC(C)C[C@H](NC(=O)OC(C)(C)C)c1nc(C(=O)N[C@@H](Cc2ccc(C(=N)NO)cc2)C(=O)O)co1` [Compound 84, (S)-2-(2-((S)-1-((tert-butoxycarbonyl)amino)-3-methylbutyl)oxazole-4-carboxamido)-3-(4-(N-hydroxycarbamimidoyl)phenyl)propanoic acid], for which the 50% inhibitory concentration (IC50) at C3a receptor (C3aR) (setting [1]) is 76 nM.

As for `CC(C)C[C@H](NC(=O)C1c2ccccc2-c2ccccc21)c1nc(C(=O)N[C@@H](CCCNC(=N)N)C(=O)O)co1` [Compound 17, 9-Fluorenecarboxylic acid-Leu-Oxazole-Arginine-OH], the “pIC50 ± SEM” value at C3a receptor (C3aR) (setting [2]) turned out to be 6.85 ± 0.15. Moreover, the concentration for half-maximal inhibition (IC50) on C3a receptor (C3aR) (setting [1]) was 142 nM.

As to `CC(C)Cc1ccc([C@H](C)C(=O)N[C@@H](CC(C)C)c2nc(C(=O)N[C@@H](CCCNC(=N)N)C(=O)O)co2)cc1` [Compound 14, 2-(4-isobutylphenyl)propanoic acid Leucine-Oxazole-Arginine-OH], at C3a receptor (C3aR) (setting [1]), the half-inhibitory concentration (IC50) is 1030 nM.

As to `Cc1c(C(=O)N[C@@H](CCCNC(=N)N)C(=O)O)nc(C(c2ccccc2)c2ccccc2)n1C` [Compound 97, 2-Benzhydryl-1,5-Dimethyl imidazole-4-carboxyl-Arginine], the IC50 at C3a receptor (C3aR) (setting [1]) is 1140 nM; on C3a receptor (C3aR) (setting [3]), 1260 nM.
